Laboratory results as given in ChEMBL document CHEMBL4834432, “Diverse Prenylated Bibenzyl Enantiomers from the Chinese Liverwort Radula apiculata and Their Cytotoxic Activities” (J Nat Prod, 2021).
Counter-ions that a name gives are not always drawn. The source made the active and inactive calls. The calls are words filed in the database; no cut-off is given here.

Key:
[1] = tested on: PC-3; experiment: Cytotoxicity against human PC-3 cells assessed as cell viability inhibition for 48 hrs by MTT assay; assay type: functional, cell-based; conditions: PC-3, 48 h
[2] = tested on: A549; experiment: Cytotoxicity against human A549 cells assessed as cell viability inhibition for 48 hrs by MTT assay; assay type: functional, cell-based; conditions: A549, 48 h
[3] = tested on: MCF7; experiment: Cytotoxicity against human MCF-7 cells assessed as cell viability inhibition for 48 hrs by MTT assay; assay type: functional, cell-based; conditions: MCF7, 48 h
[4] = tested on: NCI-H1299; experiment: Cytotoxicity against human […] cells assessed as cell viability inhibition for 48 hrs by MTT assay; assay type: functional, cell-based; conditions: NCI-H1299, 48 h
[5] = tested on: PC-3; experiment: Induction of apoptosis in human PC-3 cells assessed as nuclear shrinkage at 2 uM incubated for 24 hrs by DAPI staining analysis; assay type: functional, cell-based
[6] = tested on: PC-3; experiment: Induction of apoptosis in human PC-3 cells assessed as granular apoptotic body formation at 2 uM incubated for 24 hrs by DAPI staining analysis; assay type: functional, cell-based
[7] = tested on: PC-3; experiment: Induction of apoptosis in human PC-3 cells assessed as early apoptotic cells at 2 uM incubated for 24 hrs by annexin V/propidium iodide based flow cytometry (reference value: 2.71%); assay type: functional
[8] = tested on: PC-3; experiment: Induction of apoptosis in human PC-3 cells assessed as early apoptotic cells at 4 uM incubated for 24 hrs by annexin V/propidium iodide based flow cytometry (reference value: 2.71%); assay type: functional
[9] = tested on: PC-3; experiment: Induction of apoptosis in human PC-3 cells assessed as early apoptotic cells at 6 uM incubated for 24 hrs by annexin V/propidium iodide based flow cytometry (reference value: 2.71%); assay type: functional
[10] = tested on: PC-3; experiment: Induction of apoptosis in human PC-3 cells assessed as late apoptotic cells at 2 uM incubated for 24 hrs by annexin V/propidium iodide based flow cytometry (reference value: 3.89%); assay type: functional
[11] = tested on: PC-3; experiment: Induction of apoptosis in human PC-3 cells assessed as late apoptotic cells at 4 uM incubated for 24 hrs by annexin V/propidium iodide based flow cytometry (reference value: 3.89%); assay type: functional
[12] = tested on: PC-3; experiment: Induction of apoptosis in human PC-3 cells assessed as late apoptotic cells at 6 uM incubated for 24 hrs by annexin V/propidium iodide based flow cytometry (reference value: 3.89%); assay type: functional
[13] = tested on: PC-3; experiment: Induction of apoptosis in human PC-3 cells assessed as necrotic cells at 2 uM incubated for 24 hrs by annexin V/propidium iodide based flow cytometry (reference value: 1.93%); assay type: functional
[14] = tested on: PC-3; experiment: Induction of apoptosis in human PC-3 cells assessed as necrotic cells at 4 uM incubated for 24 hrs by annexin V/propidium iodide based flow cytometry (reference value: 1.93%); assay type: functional
[15] = tested on: PC-3; experiment: Induction of apoptosis in human PC-3 cells assessed as necrotic cells at 6 uM incubated for 24 hrs by annexin V/propidium iodide based flow cytometry (reference value: 1.93%); assay type: functional
[16] = tested on: PC-3; experiment: Induction of apoptosis in human PC-3 cells assessed as mitochondrial membrane potential loss at 2 uM incubated for 24 hrs by JC1 staining based flow cytometric analysis (reference value: 100%); assay type: functional, cell-based
[17] = tested on: PC-3; experiment: Induction of apoptosis in human PC-3 cells assessed as mitochondrial membrane potential loss at 4 uM incubated for 24 hrs by JC1 staining based flow cytometric analysis (reference value: 100%); assay type: functional, cell-based
[18] = tested on: PC-3; experiment: Induction of apoptosis in human PC-3 cells assessed as mitochondrial membrane potential loss at 6 uM incubated for 24 hrs by JC1 staining based flow cytometric analysis (reference value: 100%); assay type: functional, cell-based
[19] = tested on: PC-3; experiment: Induction of apoptosis in human PC-3 cells assessed as increase in Bax protein level incubated for 24 hrs by Western blot analysis; assay type: functional, cell-based; conditions: dose 2-6 µM
[20] = tested on: PC-3; experiment: Induction of apoptosis in human PC-3 cells assessed as increase in cleaved caspase-9 level at 2 to 6 uM incubated for 24 hrs by Western blot analysis; assay type: functional, cell-based; conditions: dose 2-6 µM
[21] = tested on: PC-3; experiment: Induction of apoptosis in human PC-3 cells assessed as increase in cleaved PARP level at 2 to 6 uM incubated for 24 hrs by Western blot analysis; assay type: functional, cell-based; conditions: dose 2-6 µM

SMILES | IC50 [1] | IC50 [2] | IC50 [3] | IC50 [4] | other results
CC1(C)Oc2cc(O)cc(CCc3ccccc3)c2C2OC3c4c(CCc5ccccc5)cc(O)cc4OC(C)(C)C3C21 (racemic) | 3.5 µM | 3.1 µM | 5.8 µM | 6.7 µM | –
CC1(C)Oc2cc(O)cc(CCc3ccccc3)c2C2=C1O[C@@H]1c3c(CCc4ccccc4)cc(O)cc3OC(C)(C)[C@H]21 | 3.2 µM | 3.6 µM | 4.5 µM | 6.2 µM | –
CC1(C)C=Cc2c(cc3c(c2CCc2ccccc2)C2(C(=O)O3)c3c(CCc4ccccc4)cc(O)cc3OC2(C)C)O1 (racemic) | 1.4 µM | 2.6 µM | 5.4 µM | 5.8 µM | –
CC1(C)Oc2cc(O)cc(CCc3ccccc3)c2C(C2=Cc3c(CCc4ccccc4)cc(O)cc3OC2(C)C)C1=O (racemic) | 4.1 µM | 4.5 µM | 4.9 µM | 6.4 µM | –
COc1cccc2c1C(=O)c1c(O)c3c(c(O)c1C2=O)C[C@@](O)(C(=O)CO)C[C@@H]3O[C@H]1C[C@H](N)[C@H](O)[C@H](C)O1 [DOXORUBICIN HYDROCHLORIDE] | 0.4 µM | 1.2 µM | – | 4.7 µM | –
CC(C)=CCc1c(O)cc2c(c1CCc1ccccc1)C1(C(=O)O2)c2c(CCc3ccccc3)cc(O)cc2OC1(C)C (racemic) | 1.5 µM | 2.8 µM | 3.6 µM | 6.9 µM | –
CC1(C)C=Cc2c(CCc3ccccc3)cc(O)c(C3CC(C)(C)Oc4cc(O)cc(CCc5ccccc5)c43)c2O1 (racemic) | 8.2 µM | 6.5 µM | 5.7 µM | 8.2 µM | –
CC1=CC2c3c(CCc4ccccc4)cc(O)cc3OC(c3c(O)cc(O)cc3CCc3ccccc3)C2C(C)(C)C1 (racemic) | 8.2 µM | – | 9.8 µM | – | –
CC1(C)Oc2cc(O)cc(CCc3ccccc3)c2C2=C1OC1c3c(CCc4ccccc4)cc(O)cc3OC(C)(C)C21 (racemic) | 3.4 µM | 3.7 µM | 5 µM | 6.6 µM | Activity [5]: Active; Activity [6]: Active; Activity [7]: 2.65%; Activity [8]: 1.4%; Activity [9]: 1.82%; Activity [10]: 5.68%; Activity [11]: 7.81%; Activity [12]: 60.74%; Activity [13]: 4.12%; Activity [14]: 2.55%; Activity [15]: 18.81%; Activity [16]: Active; Activity [17]: Active; Activity [18]: Active; Activity [19]: Active; Activity [20]: Active; Activity [21]: Active
CC1(C)Oc2cc(O)cc(CCc3ccccc3)c2C2=C1O[C@H]1c3c(CCc4ccccc4)cc(O)cc3OC(C)(C)[C@@H]21 | > 10 µM | > 10 µM | > 10 µM | > 10 µM | –
CC12CC(c3c(CCc4ccccc4)cc(O)cc3O1)C1C(C2)c2c(CCc3ccccc3)cc(O)cc2OC1(C)C (racemic) | 5.4 µM | 5.8 µM | 4.6 µM | 7.2 µM | –
